Source: patent US20250145576A1, “CATHEPSIN K INHIBITOR, AND PREPARATION METHOD THEREFOR AND USE THEREOF” (SHANDONG NEW TIME PHARMACEUTICAL CO., LTD., priority 2022, published 2025)
Like-named read-outs stand apart in the source and are kept apart here. Blank lines part the entries; values can stand above or below the molecule they belong to.

How the values were obtained:
Cathepsin K = Cathepsin K (Homo sapiens (Human), UniProt P43235); assay: Cat K inhibitor screening kit, AFC substrate fluorescence; type: biochemical
Chain of Cathepsin K (P43235 115-329): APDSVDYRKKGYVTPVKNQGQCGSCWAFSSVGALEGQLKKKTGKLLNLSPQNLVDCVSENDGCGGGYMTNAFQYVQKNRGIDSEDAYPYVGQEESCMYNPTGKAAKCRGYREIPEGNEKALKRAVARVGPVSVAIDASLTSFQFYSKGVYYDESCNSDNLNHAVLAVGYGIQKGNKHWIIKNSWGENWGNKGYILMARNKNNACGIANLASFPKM
Description: Reagent information: Cat K inhibitor screening kit: batch number, 6L23K01500; supplier, BiVision. Drug preparation: compounds were dissolved in DMSO and prepared into 10 mM stock solutions. When in use, the stock solutions were prepared into the required concentrations by using a buffer.
Cathepsin K (CTSK, EC 3.4.22.38) is a lysosomal cysteine protease, participates in osteoclastic bone remodeling and resorption, and can further degrade collagen, gelatin and elastin. The cathepsin K inhibitor screening kit from Biovision uses the ability of the active cathepsin K to cleave a synthetic AFC-based peptide substrate to release AFC and the AFC can be easily quantified by using a fluorometer or fluorescent microplate reader. In the presence of a specific cathepsin K specific inhibitor, the cleavage of the substrate is reduced/eliminated, resulting in a reduction or complete loss of AFC fluorescence. The simple and high-throughput adaptive assay kit can be used to screen/study/characterize a potential inhibitor of the cathepsin K.
(§1) 20 μL of a buffer, a Cat K inhibitor and test compounds (1 μM and 10 μM) were added to 96-well plates to serve as an EC well, an IC well and an S well, respectively; 50 μL of a Cat K enzyme solution was added into all the wells respectively and the mixture was incubated for 10-15 min at room temperature to establish an enzyme inhibitor complex; 30 μL of a Cat K substrate solution was added into all the wells and the mixture was incubated for 30-60 min at room temperature; and the final volume of the reaction was 100 μL.
The screening method was the same as 1.1, the concentrations of the test compounds were set between 0.1 nM and 10 μM, 4-5 concentrations were selected for detection, IC50 curves were drawn, and IC50 values were calculated.

Cathepsin S = assay: Screening of Cathepsin S, fluorescence; type: biochemical; conditions: >> inhibition rate did not exceed 20% at test concentration; > greater than 35%; ≈ about 50%; < less than 50%
Description: as §1, with “10 μL of” for “20 μL of”, “a Cat S inhibitor and” for “a Cat K inhibitor and”, “a […]” for “a Cat K enzyme solution”, “inhibitor complex; 40 μL of” for “inhibitor complex; 30 μL of”, “a Cat S substrate solution” for “a Cat K substrate solution”
(§2) The screening method was the same as above, the concentrations of the test compounds were set between 0.1 nM and 10 μM, 4-5 concentrations were selected for detection, IC50 curves were drawn, and IC50 values were calculated.

Cathepsin B = Cathepsin B (Homo sapiens (Human), UniProt P07858); assay: Screening of Cathepsin B, fluorescence; type: biochemical; conditions: >> inhibition rate did not exceed 20% at test concentration; > greater than 35%; ≈ about 50%; < less than 50%
Description: as §1, with “10 μL” for “20 μL”, “Cat B” for “Cat K”, “complex; 40” for “complex; 30”
as §2

[1] = design: species or system SD rats; conditions: rat, in vivo
Description: • Chromatographic column: […] Electrospray ionization (ESI); ion spray voltage: 3,500 V; ion source temperature: 300° C.; auxiliary gas: 45 Arb; and sheath gas: 10 Arb. • Intravenous intraperitoneal administration solution: prepared with 0.5% HS-15 normal saline solution with the concentration of 0.2 mg/mL; and • intragastric administration suspension: ground and suspended with 0.5% CMC-Na aqueous solution with the concentration of 0.5 mg/mL. Each administration was tested using 2 SD rats per compound. The two compounds […] were subjected to intravenous injection and intragastric administration respectively. […] All blood samples were anticoagulated by heparin and centrifuged for 10 min at 4,000 g. The supernatant plasma was taken for cryopreservation to be tested. 50 μL of the plasma sample was taken, 150 μL of acetonitrile was added, the mixture was evenly mixed by vortex and centrifuged at 9,100 g for 10 min, and a supernatant was taken and 2 μL of the supernatant was injected and detected on a machine.

RAW264.7 cells = assay: Osteoclast differentiation of RAW264.7 cells induced by RANKL, TRAP staining; type: cell-based; conditions: for osteoclastogenesis compared with model group (in words): K29 at 1 μM and 10 μM, K31 at 100 nM and 500 nM
Description: RAW264.7 cells were inoculated at a density of 1×10^5/well in 96-well plates and cultured in DMEM containing 10% fetal bovine serum and 1% penicillin/streptomycin. The cells were cultured in a constant-temperature incubator containing 5% CO2 at 37° C. 100 ng/mL of a RANKL inducing solution was added into each well of the administration groups and a model group to culture osteoclasts, the solution (containing RANKL) was changed every 2-3 days, inhibitor working solutions with different concentrations were added into the administration groups after the solution was changed for the 3rd time, a PBS working solution with the same volume was added into the model group, and the cells were continuously cultured for 24 h; and in the control group, the RANKL inducing solution and the inhibitor working solution were not added, and the PBS working solution with the same total volume was added. A culture supernatant was removed, the cells were rinsed 3 times with PBS and stained with a TRAP staining kit, and the multinucleated osteoclasts were observed under an optical microscope and counted.

SMILES: COc1cccc2c3c([nH]c12)CCN(C(=O)[C@@H]1CCCC[C@H]1C(=O)N[C@H]1COCC1=O)C3 [Compound K29, (1R,2R)-2-(6-methoxy-2,3,4,5-tetrahydro-1H-pyrido[4,3-b]indole-2-carbonyl)-N—(S)-(4-oxotetrahydrofuran-3-yl)-cyclohexane-1-carboxamide]
F [1]: 62.1%
Tmax ([1]; iv, 1 mg/kg): 1.98 min
Bioavailability % ([1]; po): 62.1%
CLz ([1]; po): 26.7 mL/min/kg
Cmax ([1]; po): 1,285 ng/mL
Tmax ([1]; po): 15 min
Vz ([1]; po): 3.83 L/kg
t1/2z ([1]; po): 99 min
Tmax ([1]; po, 5 mg/kg): 15 min
Number of osteoclasts (RAW264.7 cells; 1 μM): 13
Number of osteoclasts (RAW264.7 cells; 10 μM): 11.25
osteoclastogenesis (in words) (RAW264.7 cells; 10 μM): obviously inhibited the osteoclastogenesis
osteoclastogenesis compared with model group (in words) (RAW264.7 cells): tendency to inhibit osteoclastogenesis

SMILES: CC(C)(C)CN(Cc1ccc(-c2cscn2)cc1)c1nccc(C#N)n1 [Compound K17, 2-(neopentyl(4-(thiazol-4-yl)benzyl)amino)pyrimidine-4-carbonitrile]
IC50 (Cathepsin K): 0.1 to 0.5 µM

SMILES: CS(=O)(=O)c1ccc(-c2ccc(CN(CC3CCCCC3)c3nccc(C#N)n3)cc2)cc1 [Compound K16, 2-[(cyclohexylmethyl) ({4-[4-(methylsulfonyl)phenyl]phenyl}methyl)amino]pyrimidine-4-carbonitrile]
Cat S/K ratio of inhibitory activities (Cathepsin S): >>3,300
IC50 (Cathepsin K): 0.1 to 0.5 µM
Cat B/K ratio of inhibitory activities (Cathepsin B): >>3,300

SMILES: COc1cc(F)cc2c3c([nH]c12)CCN(C(=O)[C@@H]1CCCC[C@H]1C(=O)N[C@H]1COCC1=O)C3 [Compound K31, (1R,2R)-2-(8-fluoro-6-methoxy-2,3,4,5-tetrahydro-1H-pyrido[4,3-b]indole-2-carbonyl)-N—(S)-(4-oxotetrahydrofuran-3-yl)-cyclohexane-1-carboxamide]
F [1]: 51.0%
Tmax ([1]; iv, 1 mg/kg): 1.98 min
Bioavailability % ([1]; po): 51.0%
CLz ([1]; po): 27.8 mL/min/kg
Cmax ([1]; po): 936 ng/mL
Tmax ([1]; po): 15 min
Vz ([1]; po): 4.38 L/kg
t1/2z ([1]; po): 109 min
Tmax ([1]; po, 5 mg/kg): 15 min
Number of osteoclasts (RAW264.7 cells; 100 nM): 13.25
Number of osteoclasts (RAW264.7 cells; 500 nM): 14
osteoclastogenesis compared with model group (in words) (RAW264.7 cells): tendency to inhibit osteoclastogenesis

SMILES: CC(C)(F)C[C@H](N[C@@H](c1ccc(-c2ccc(S(C)(=O)=O)cc2)cc1)C(F)(F)F)C(=O)NC1(C#N)CC1 [Odanacatib, reference compound]
Cat S/K ratio of inhibitory activities (Cathepsin S): <290
Cat B/K ratio of inhibitory activities (Cathepsin B): >590

SMILES: CC(C)(C)CN(Cc1ccc(-c2ccccc2)cc1)c1nccc(C#N)n1 [Compound K2, 2-[(2,2-dimethylpropyl)[(4-phenylphenyl)methyl]amino]pyrimidine-4-carbonitrile]
Cat S/K ratio of inhibitory activities (Cathepsin S): >>2,100
IC50 (Cathepsin K): 0.1 to 0.5 µM
Cat B/K ratio of inhibitory activities (Cathepsin B): >>2,100

SMILES: CC(C)(C)CN(Cc1ccc(-c2ccc(S(C)(=O)=O)cc2)cc1)c1nccc(C#N)n1 [Compound K6, 2-[(2,2-dimethylpropyl) ({4-[4-(methylsulfonyl)phenyl]phenyl}methyl)amino]pyrimidine-4-carbonitrile]
Cat S/K ratio of inhibitory activities (Cathepsin S): >>3,300
IC50 (Cathepsin K): 0.1 to 0.5 µM
Cat B/K ratio of inhibitory activities (Cathepsin B): >>3,300

Second part, led by results:

IC50 (Cathepsin K): 0.1 to 0.5 µM
SMILES: Cc1ccc(-c2ccc(CN(CC(C)(C)C)c3nccc(C#N)n3)cc2)s1 [Compound K10, 2-[(2,2-dimethylpropyl){[4-(5-methylthiophen-2-yl)phenyl]methyl}amino]pyrimidine-4-carbonitrile]

IC50 (Cathepsin K): < 0.01 µM
IC50 (Cathepsin K; stated in text): < 0.01 µM
Cat B/K ratio of inhibitory activities (Cathepsin B): >15,000
SMILES: CN1CCN(c2ccc(-c3ccc(CN(CC4CCCCC4)c4nccc(C#N)n4)cc3)cc2)CC1 [Compound K15, 2-[(cyclohexylmethyl) ({4-[4-(4-methylpiperazin-1-yl)phenyl]phenyl}methyl)amino]pyrimidine-4-carbonitrile]
Cat S/K ratio of inhibitory activities (Cathepsin S): ≈7,460

IC50 (Cathepsin K): 0.1 to 0.5 µM
SMILES: CC(C)(C)CN(Cc1ccc(-c2ccc(C#N)s2)cc1)c1nccc(C#N)n1 [Compound K7, 2-({[4-(5-cyanothiophen-2-yl)phenyl]methyl}(2,2-dimethylpropyl)amino)pyrimidine-4-carbonitrile]

IC50 (Cathepsin K): < 0.01 µM
IC50 (Cathepsin K; stated in text): < 0.01 µM
SMILES: CN1CCN(c2ccc(-c3ccc(CN(CC(C)(C)C)c4nccc(C#N)n4)cc3)cc2)CC1 [Compound K13, 2-[(2,2-dimethylpropyl) ({4-[4-(4-methylpiperazin-1-yl)phenyl]phenyl}methyl)amino]pyrimidine-4-carbonitrile]

IC50 (Cathepsin K): 0.01 to 0.1 µM
SMILES: O=C1COCC1NC(=O)[C@@H]1CCCC[C@H]1C(=O)N1CCc2c([nH]c3c(F)cccc23)C1 (stereo partly drawn) [Compound K19, (1R,2R)-2-(8-fluoro-2,3,4,9-tetrahydro-1H-pyrido[3,4-b]indole-2-carbonyl)-N-(4-oxotetrahydrofuran-3-yl)cyclohexane-1-carboxamide]

IC50 (Cathepsin K): 0.01 to 0.1 µM
IC50 (Cathepsin K; stated in text): < 0.1 µM
Cat B/K ratio of inhibitory activities (Cathepsin B): >1,600
SMILES: CN1CCN(c2ccc(CN(CC(C)(C)C)c3nccc(C#N)n3)cc2)CC1 [Compound K1, 2-[(2,2-dimethylpropyl){[4-(4-methylpiperazin-1-yl)phenyl]methyl}amino]pyrimidine-4-carbonitrile]
Cat S/K ratio of inhibitory activities (Cathepsin S): >800
